From US11485713B2, “Androgen receptor modulators and methods for their use” (ESSA Pharma, Inc., priority 2018, dated 2022)
Counter-ions that a name gives are not always drawn.

Key:
[1] = Microsomal stability assay, MLM; assay type: in vitro ADME; conditions: mouse, pH 7.4, 1 μM test compound, 0.5 mg/mL liver microsomes protein, 37° C., 0-60 min, read-out: MLM +/− NADPH: Clint (μL/min/mg protein)
Text: (§1) Microsomal Stability Assay: Microsomal stability assay is a widely used in vitro model to characterize the metabolic conversion by phase I enzymes, such as cytochrome P450 (CYP) enzymes. Since metabolism is known to be highly variable in different species, microsomal stability assay is commonly run in multiple species. Metabolic stability of testing compound can be evaluated using human, rat, mouse, or other animal liver or intestine microsomes to predict intrinsic clearance.
(§2) The assay was carried out in 96-well microtiter plates at 37° C. Reaction mixtures (25 μL) contained a final concentration of 1 μM test compound, 0.5 mg/mL liver microsomes protein, and 1 mM NADPH and/or 1 mM UDPGA (with alamethicin) in 100 mM potassium phosphate, pH 7.4 buffer with 3 mM MgCl2. The incubation was done with N=1, but duplicate incubation at each time point can be prepared if necessary. At each of the time points (for example, 0, 15, 30, and 60 minutes), 150 μL of quench solution (100% acetonitrile with 0.1% formic acid) with internal standard was transferred to each well. Besides the zero minute controls, mixtures containing the same components except the NADPH can also be prepared as the negative control. Verapamil was included as a positive control to verify assay performance. Plates were sealed, vortexed, and centrifuged at 4° C. for 15 minutes at 4000 rpm. The supernatant is transferred to fresh plates for LC/MS/MS analysis.
(§3) Summarized conditions: [Compound]=1 μM, [LM]=0.5 mg/mL, [NADPH]=1 mM and/or [UDPGA]=1 mM, Buffer=100 mM Potassium Phosphate, pH 7.4 with 3 mM MgCl2, Time=0, 15, 30, and 60 min, and Temperature=37° C.
(§4) All samples were analyzed on LC/MS/MS using an AB Sciex API 4000 instrument, coupled to a Shimadzu LC-20AD LC Pump system. Analytical samples were separated using a Waters Atlantis T3 dC18 reverse phase HPLC column (20 mm×2.1 mm) at a flow rate of 0.5 mL/min. The mobile phase consisted of 0.1% formic acid in water (solvent A) and 0.1% formic acid in 100% acetonitrile (solvent B).
(§5) The extent of metabolism is calculated as the disappearance of the test compound, compared to the 0-min time incubation. Initial rates are calculated for the compound concentration and used to determine half-life (t½) values and subsequently, the intrinsic clearance (Clint). Clint=(0.693)(1/t½ (min))(g of liver/kg of body weight)(mL incubation/mg of microsomal protein)(45 mg of microsomal protein/g of liver weight)

[2] = Microsomal stability assay, HLM; assay type: in vitro ADME; conditions: human, pH 7.4, 1 μM test compound, 0.5 mg/mL liver microsomes protein, 37° C., 0-60 min, read-out: HLM +/− NADPH: Clint (μL/min/mg protein)
Text: as §1, §2, §3, §4, §5

[3] = tested on: LNCaP ARE-Luc; assay: Luciferase assay in LNCaP cell lysates (LNCaP ARE-Luc); assay type: cell-based; conditions: Homo sapiens, Firefly Luciferase Assay System, read-out: LNCaP ARE-Luc % inhibition IC50 Ranges
Method: Lysates were thawed on ice then collected into V-bottom 96-well tissue culture plates. Lysates were centrifuged at 4° C. for 5 minutes at 4000 rpm. To measure luminescence of LNCaP cell lysates the Firefly Luciferase Assay System (Promega) was employed, according to manufacturer's protocol. Relative luminescence units (RLU) in cell lysates were detected for 10 seconds using Promega GoMax-Multi Detection Luminometer (Promega).
Statistical analyses were performed using GraphPad Prism (Version 6.01 for Windows; La Jolla, Calif., USA). Comparisons between treatment and control groups were compared using Two-Way ANOVA with post-hoc Dunnett's and Tukey's tests. Differences were considered statistically significant at P values less than 0.05. Densitometric quantification of relative AR levels was determined by Image.

| SMILES | microsomal CLint at 1 μM [1] [µL/min/mg] | microsomal CLint at 1 μM [2] [µL/min/mg] | IC50 [3] [nM] |
| --- | --- | --- | --- |
| CN(CC(=O)CNS(C)(=O)=O)c1ccc(C(C)(C)c2cc(Cl)c(OCCCCl)c(Cl)c2)cc1 [Compound A28] | 12 to 48 | 12 to 48 | ≥ 250 |
| CN(c1ccc(OCC(=O)CNS(C)(=O)=O)cc1)c1cc(Cl)c(OCCCCl)c(Cl)c1 [Compound A23] | ≥ 48 | ≥ 48 | ≥ 250 |
| Cc1cc(C(C)(C)c2ccc(OCCCCl)cc2)ccc1OCC(=O)CNS(C)(=O)=O [Compound A9] | ≥ 48 | ≥ 48 | ≥ 250 |
| Cc1cc(OCCCCl)ccc1C(C)(C)c1ccc(OCC(=O)CNS(C)(=O)=O)cc1 [Compound A2] | ≥ 48 | ≥ 48 | 100 to 250 |
| CC(C)NC(=O)COc1ccc(C(C)(C)c2cc(Cl)c(OCCCCl)c(Cl)c2)cc1 [Compound A30] | < 12 | 12 to 48 | ≥ 250 |
| CC(C)(c1ccc(OCC(N)=O)cc1)c1cc(Cl)c(OCCCCl)c(Cl)c1 [Compound A42] | < 12 | 12 to 48 | ≥ 250 |
| CC(C)(c1ccc(OCC(=O)CNS(C)(=O)=O)cc1)c1cc(Cl)c(CCCCCl)c(Cl)c1 [Compound A34] | ≥ 48 | ≥ 48 | ≥ 250 |
| CS(=O)(=O)NCC(=O)COc1ccccc1Cc1cc(Cl)c(OCCCCl)c(Cl)c1 [Compound A49] | ≥ 48 | ≥ 48 | ≥ 250 |
| CS(=O)(=O)NCC(=O)COc1ccc(Cc2cc(Cl)c(OCCCCl)c(Cl)c2)cc1 [Compound A21] | ≥ 48 | ≥ 48 | ≥ 250 |
| CC(C)(c1ccc(OCC(=O)CNS(C)(=O)=O)cc1)c1ccc(OCCCCl)c(Cl)c1 [Compound A5] | ≥ 48 | ≥ 48 | < 100 |
| CN(CC(=O)CNS(C)(=O)=O)c1ccc(C(C)(C)c2cc(Cl)c(OCCCl)c(Cl)c2)cc1 [Compound A81, N-(3-((4-(2-(3,5-dichloro-4-(2-chloroethoxy)phenyl)propan-2-yl)phenyl) (methyl)amino)-2-oxopropyl)methanesulfonamide hydrochloride] | 12 to 48 | 12 to 48 | ≥ 250 |
| CC(C)(c1ccc(OCC(=O)CNS(C)(=O)=O)cc1)c1cc(Cl)c(OCc2cccc(Cl)c2)c(Cl)c1 [Compound A37] | ≥ 48 | ≥ 48 | ≥ 250 |
| Cc1cc(C(C)(C)c2ccc(OCC(=O)CNS(C)(=O)=O)cc2)ccc1OCCCCl [Compound A1] | ≥ 48 | ≥ 48 | < 100 |
| CS(=O)(=O)NCC(=O)COc1ccc(-c2cc(Cl)c(OCC(O)CCl)c(Cl)c2)cc1 (centres unmarked) [Compound A25] | ≥ 48 | ≥ 48 | ≥ 250 |
| CC(C)(c1ccc(OCCCCl)cc1)c1ccc(OCC(=O)CNS(C)(=O)=O)c(Cl)c1 [Compound A13] | ≥ 48 | ≥ 48 | ≥ 250 |
| CC(C)(c1ccc(OCC(=O)CNS(C)(=O)=O)cc1)c1cc(Cl)c(OCc2ccccc2Cl)c(Cl)c1 [Compound A79] |  | ≥ 48 | ≥ 250 |
| CC(C)N(c1ccc(OCC(=O)CNS(C)(=O)=O)cc1)c1cc(Cl)c(OCCCCl)c(Cl)c1 [Compound A70] |  | ≥ 48 | ≥ 250 |
| CC(O)(CCl)COc1c(Cl)cc(C(C)(C)c2ccc(NC(=O)C(=O)C(F)(F)F)cc2)cc1Cl (centres unmarked) [Compound A95] |  | < 12 | ≥ 250 |
| CC(C)(c1ccc(NCC(=O)CNS(C)(=O)=O)cc1)c1cc(Cl)c(OCCCCl)c(Cl)c1 [Compound A27] | 12 to 48 | ≥ 48 | ≥ 250 |
| CC(C)(c1ccc(OCCCCl)cc1)c1ccc(OCC(=O)CNS(C)(=O)=O)cc1Cl [Compound A14] |  | ≥ 48 | ≥ 250 |
| CC(C)(c1ccc(NC(=O)C(=O)C(F)(F)F)cc1)c1cc(Cl)c(OCCCCl)c(Cl)c1 [Compound A93] |  | < 12 | ≥ 250 |
| CC(C)(NS(C)(=O)=O)C(=O)COc1ccc(C(C)(C)c2cc(Cl)c(OCCCCl)c(Cl)c2)cc1 [Compound A64] |  | < 12 | ≥ 250 |
| CC(=O)NCC(=O)COc1ccc(C(C)(C)c2cc(Cl)c(OCCCCl)c(Cl)c2)cc1 [Compound A65] |  | ≥ 48 | ≥ 250 |
| CC(C)(c1ccc(OCC(=O)NNS(C)(=O)=O)cc1)c1cc(Cl)c(OCCCCl)c(Cl)c1 [Compound A80] |  | 12 to 48 | ≥ 250 |
| CC(C)(Oc1ccc(C(C)(C)c2cc(Cl)c(OCCCCl)c(Cl)c2)cc1)C(=O)CNS(C)(=O)=O [Compound A63] |  | ≥ 48 | < 100 |
| CC(C)(c1ccc(OC(F)(F)C(=O)CCNS(C)(=O)=O)cc1)c1cc(Cl)c(OCCCCl)c(Cl)c1 [Compound A94, N-(4-(4-(2-(3,5-dichloro-4-(3-chloropropoxy)phenyl)propan-2-yl)phenoxy)-4,4-difluoro-3-oxobutyl)methanesulfonamide] |  | ≥ 48 | ≥ 250 |
| COc1cc(C(C)(C)c2ccc(OCCCCl)cc2)ccc1OCC(=O)CNS(C)(=O)=O [Compound A11] |  | ≥ 48 | ≥ 250 |
| CC(C)(c1cccc(OCC(=O)CNS(C)(=O)=O)c1)c1ccc(Cl)c(OCCCCl)c1Cl [Compound A77] | 12 to 48 | < 12 | < 100 |
| CC(C)(c1ccc(CNC(=O)CNS(C)(=O)=O)cc1)c1cc(Cl)c(OCCCCl)c(Cl)c1 [Compound A46, N-(4-(2-(3,5-dichloro-4-(3-chloropropoxy)phenyl)propan-2-yl)benzyl)-2-(methylsulfonamido)acetamide] |  | 12 to 48 | ≥ 250 |
| COc1cc(OCCCCl)ccc1C(C)(C)c1ccc(OCC(=O)CNS(C)(=O)=O)cc1 [Compound A4] |  | ≥ 48 | ≥ 250 |
